Experimental data taken from US10745355B2, “Anti-cancer compounds” (THE UNIVERSITY OF SYDNEY, priority 2015, dated 2020).

Assays:
Format in all cases: biochemical
EPHB1 = molecular target: T1, EPHB1 (Homo sapiens, UniProt P54762); test: Kinase profiling (ProQinase 33PanQinase Activity Assay), EPHB1; conditions: read-out: residual activity, EPHB1
T1 sequence (P54762 18-984): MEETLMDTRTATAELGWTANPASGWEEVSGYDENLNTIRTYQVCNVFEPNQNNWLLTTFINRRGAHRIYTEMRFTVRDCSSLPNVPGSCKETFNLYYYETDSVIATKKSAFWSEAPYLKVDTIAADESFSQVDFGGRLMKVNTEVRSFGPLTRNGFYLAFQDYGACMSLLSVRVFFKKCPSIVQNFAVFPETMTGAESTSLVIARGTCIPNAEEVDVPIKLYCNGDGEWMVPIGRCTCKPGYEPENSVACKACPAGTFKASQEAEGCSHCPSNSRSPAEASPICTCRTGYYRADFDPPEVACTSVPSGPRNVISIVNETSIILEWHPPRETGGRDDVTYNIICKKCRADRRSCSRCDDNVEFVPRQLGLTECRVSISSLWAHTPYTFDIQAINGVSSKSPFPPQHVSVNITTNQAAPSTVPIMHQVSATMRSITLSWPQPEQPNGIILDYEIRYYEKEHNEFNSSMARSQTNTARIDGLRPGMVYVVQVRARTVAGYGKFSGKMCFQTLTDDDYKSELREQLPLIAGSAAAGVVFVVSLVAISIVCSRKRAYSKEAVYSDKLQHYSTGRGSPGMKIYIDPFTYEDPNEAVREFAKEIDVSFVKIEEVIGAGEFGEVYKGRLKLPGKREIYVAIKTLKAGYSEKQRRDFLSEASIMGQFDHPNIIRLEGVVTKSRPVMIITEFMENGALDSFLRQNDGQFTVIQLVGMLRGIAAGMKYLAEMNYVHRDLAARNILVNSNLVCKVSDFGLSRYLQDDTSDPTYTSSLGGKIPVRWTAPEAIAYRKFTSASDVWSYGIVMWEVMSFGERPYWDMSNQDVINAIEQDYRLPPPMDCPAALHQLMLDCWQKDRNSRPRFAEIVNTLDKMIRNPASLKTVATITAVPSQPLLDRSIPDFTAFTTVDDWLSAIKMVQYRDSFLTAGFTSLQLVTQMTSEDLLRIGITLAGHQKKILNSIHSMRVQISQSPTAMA
Method: (§1) The kinase profiling of compound 1-08 at 10 and 50 μM was performed by ProQinase GmbH (Freiburg, Germany). A radiometric protein kinase assay (^33PanQinase® Activity Assay) and the non-radiometric ADP-Glo™ Assay (Promega, Madison, Wis., USA) were used for measuring kinase activity of 387 protein kinases and 13 lipid kinases, respectively. The results are shown in Table 3 (only the top 10 kinases are listed, and the selectivity score describes the portion of kinases inhibited more than 50% in relation to all tested kinases).

MERTK = molecular target: T2, MERTK (Homo sapiens, UniProt Q12866); test: Kinase profiling (ProQinase 33PanQinase Activity Assay), MERTK (table: MERK)
T2 sequence (Q12866 21-999): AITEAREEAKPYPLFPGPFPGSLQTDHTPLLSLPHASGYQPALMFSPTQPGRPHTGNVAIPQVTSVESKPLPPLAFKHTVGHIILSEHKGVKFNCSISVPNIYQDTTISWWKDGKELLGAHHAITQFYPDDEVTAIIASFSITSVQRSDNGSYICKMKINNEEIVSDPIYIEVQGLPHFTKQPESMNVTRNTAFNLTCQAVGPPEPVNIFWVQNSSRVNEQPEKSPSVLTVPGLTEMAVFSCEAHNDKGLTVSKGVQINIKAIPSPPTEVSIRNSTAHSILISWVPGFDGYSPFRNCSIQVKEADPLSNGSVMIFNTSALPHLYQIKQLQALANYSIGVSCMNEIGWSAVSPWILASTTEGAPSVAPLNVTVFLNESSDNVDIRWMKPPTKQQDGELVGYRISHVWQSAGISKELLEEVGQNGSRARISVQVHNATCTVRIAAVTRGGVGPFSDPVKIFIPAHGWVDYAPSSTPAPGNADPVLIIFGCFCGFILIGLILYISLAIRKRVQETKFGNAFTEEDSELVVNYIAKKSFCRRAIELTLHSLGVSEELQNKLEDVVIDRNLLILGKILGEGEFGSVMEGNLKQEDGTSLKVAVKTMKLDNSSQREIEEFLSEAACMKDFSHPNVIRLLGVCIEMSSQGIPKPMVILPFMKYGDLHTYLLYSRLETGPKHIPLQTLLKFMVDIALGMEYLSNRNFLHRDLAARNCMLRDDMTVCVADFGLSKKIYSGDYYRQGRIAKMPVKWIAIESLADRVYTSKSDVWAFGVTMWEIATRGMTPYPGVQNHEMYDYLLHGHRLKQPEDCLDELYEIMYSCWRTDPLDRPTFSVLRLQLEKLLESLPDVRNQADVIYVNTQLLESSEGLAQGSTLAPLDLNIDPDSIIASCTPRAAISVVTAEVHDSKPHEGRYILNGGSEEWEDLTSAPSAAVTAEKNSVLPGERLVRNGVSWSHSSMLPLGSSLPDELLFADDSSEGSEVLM
Method: as §1
At 10 μM, compound 1-08 inhibited MERTK at the 51% level. Several other kinases were inhibited at 50 μM concentration.

SRC = SRC (Homo sapiens, UniProt P12931); test: Kinase profiling (ProQinase 33PanQinase Activity Assay), SRC; conditions: read-out: residual activity, SRC
SRC, sequence (P12931 whole entry): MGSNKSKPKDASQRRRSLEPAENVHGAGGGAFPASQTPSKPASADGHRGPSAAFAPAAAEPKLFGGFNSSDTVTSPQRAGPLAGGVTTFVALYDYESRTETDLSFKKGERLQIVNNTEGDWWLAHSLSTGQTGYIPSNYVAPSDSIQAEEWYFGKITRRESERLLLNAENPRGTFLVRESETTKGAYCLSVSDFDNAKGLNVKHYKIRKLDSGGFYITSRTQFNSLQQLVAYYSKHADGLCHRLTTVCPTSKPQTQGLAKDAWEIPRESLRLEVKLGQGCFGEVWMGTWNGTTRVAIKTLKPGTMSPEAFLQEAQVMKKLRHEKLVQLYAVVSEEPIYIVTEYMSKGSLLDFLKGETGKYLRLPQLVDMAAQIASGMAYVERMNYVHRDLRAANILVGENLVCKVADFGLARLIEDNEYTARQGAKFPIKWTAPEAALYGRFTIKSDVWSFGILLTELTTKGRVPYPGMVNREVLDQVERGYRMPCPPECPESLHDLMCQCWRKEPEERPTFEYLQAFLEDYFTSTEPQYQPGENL
Method: as §1

**Q.** Which results are given for `O=C(CCCc1ccc(-c2cnc3ccccc3c2)cc1)Nc1ccc(O)cc1` [Compound 1-08, N-(4-hydroxyphenyl)-4-(4-(quinolin-3-yl)phenyl)butanamide]?
**A.** remaining activity at 10 µM (EPHB1; 10 μM compound): 57%; remaining activity at 50 µM (EPHB1; 50 μM compound): 20%; inhibition at 10 µM (MERTK; 10 μM compound): 51%; remaining activity at 10 µM (MERTK; 10 μM compound, read-out: residual activity, MERK): 49%; remaining activity at 50 µM (MERTK; 50 μM compound, read-out: residual activity, MERK): 12%; remaining activity at 10 µM (SRC; 10 μM compound): 57%; remaining activity at 50 µM (SRC; 50 μM compound): 21%
